We go through one compound from patent US7148210B2, “Method of treating bone metastasis” (Trustees of Dartmouth College, priority 2002, dated 2006).

The subject of series [1] is hormone-refractory prostate adenocarcinoma (HRPA). Description: Blood PSA response in hormone-refractory prostate cancer patients with bone metastasis. Type of series: in vivo, human. As for the experimental part:
Treatment of hormone-refractory prostate adenocarcinoma (HRPA) patients presents a complex combination of tumor and pain management. […] HRPA outcomes and PSA measurements were determined pre- and post-treatment within 25–45 days after Sm-153 administration.
[formula] PSA decreases of greater than 50% from baseline are associated with improved survivals in prostate cancer patients [Zyskowski, et al. (2001) Australas Radiol. 45:39; Kelly, et al. (1993) J. Clin. Oncol. 11:607).
The change in PSA was expressed as a ratio rather than a strict difference due to assumed relative changes. Furthermore, assumed multiplicative error provided that the variation of PSA levels increased with an increase in PSA levels. The combination of these two assumptions provided that the PSA responses be compared on the log scale. Furthermore, it is known that the log scale stabilizes the variance (Rosner, In: Fundamentals of Bio-statistics, 5th edition, Pacific Grove: Duxbury) and it has been observed that the variation in PSA among patients with prostate cancer is higher than in healthy (disease-free) controls.
This regime was maintained until the maximally tolerated dose (MTD) was reached. […]

For series [2] the following is noted: cited from earlier work.
The test system of a further series is bone metastases. Description: Clinical outcome in patients (bone pain, energy, bone scan). It is filed as in vivo, human. Conditions: Patient 1. The source says: (§1) Patients were consenting adult patients with histologically/cytologically confirmed advanced hormone-refractory prostate cancer not curable by conventional therapies that fulfilled the standard phase 1 liver, renal and Karnofsky performance eligibility requirements. The patients also had to meet one of the two following requirements. A positive bone scan and/or imaging study for bone metastasis with accompanying bone pain had to be present with rising PSA values, identified in three consecutive PSA observations, following definitive surgery and/or radiation therapy and anti-androgen hormonal therapy. PSA levels (>10 ng/ml) and a positive bone scan and bone pain at time of initial diagnosis.

The next series relates to HRPA cells. Conditions: preclinical observations, Janssens and Boeynaems (2001); Fang et al. (1992); cited from earlier work.
Series [3] can be described thus: Monitoring of patients for adverse effects / tolerability. It is filed as in vivo, human. The source says: (§2) This regime was maintained until the maximally tolerated dose (MTD) was reached.
The nature of series [4]: ATP i.v. infusion dose escalation to maximally tolerated dose (present disclosure). Type of series: in vivo, human. Particulars: duration 8 hours.
Description: as §2, §1
Average patient age was between 50 and 85 years of age. Patients were excluded if they met the standard phase 1 respiratory and cardiac exclusion criteria.
ATP infusion therapy was as described above.

The structures appear in SMILES notation. Read-outs that look alike come from different tables or passages of the source. Marks after values point to notes of the source that are not given here.

In the case of `Nc1ncnc2c1ncn2[C@@H]1O[C@H](COP(=O)(O)OP(=O)(O)OP(=O)(O)O)[C@@H](O)[C@H]1O` [ATP, Adenosine triphosphate], the “rate of PSA level increase during ATP treatments” value in series [1] (Patient 1, eight weekly i.v. ATP infusions, no Sm-153, PSA at start 2732 ng/ml) is “stabilized”. Besides, in series [1] (three advanced prostate cancer patients, i.v. infused ATP), the “PSA levels during ATP treatment” value is reported as “stabilized”. For the same compound, the MTD in series [2] (Study 1, Gaba (1990), incremental i.v. dose levels, each infusion 20 min.) was 125* μg/kg/min; in series [2] (Study 4, Haskell et al. (1998), duration 96 hours), 50 µg/kg/min; in series [2] (Study 5, Agteresch et al. (2000), infused over 30 hours, start 20 μg/kg/min, increments of 10 every 30 minutes) it was 65 to 75 µg/kg/min; in series [2] (Study 6, Haskell et al. (1996), duration 96 hours), 75 µg/kg/min; in series [4] (Study 2, present disclosure) it was 75 µg/kg/min; in series [4] (Study 3, present disclosure) it was 100 µg/kg/min. The “energy levels, exercise and activity” value in the series on bone metastases (eighth week, 100 μg/kg/min × 8 hours) was “improved energy levels at home and improved exercise and activity”. In addition, the bone pain entry in the series on bone metastases (end of the eight weeks of ATP therapy) was “continued to have bone pain”. For the same compound, in the series with HRPA cells, the “effect on HRPA cells in vitro” value was “inhibits”. For the same compound, the tolerability result in series [3] (8-hour infusion once weekly at 50 up to 100 μg/kg/minute) is reported as “well tolerated by most patients”. Also, in series [3] (Patient 1, 33% at start of trial, transfusion given at nadir), the “hematocrit NADIR” value is 25%. For the same compound, the “side effects of ATP infusion” value in series [3] (Patient 1, eight weekly i.v. infusions) is recorded as “minor side effects”.
